Target: T1, fructosyl amino acid oxidase from Pichia sp. N1-1 (N1-1 FAOD, SEQ ID NO: 2) variant N47A (Pichia sp. N1-1, UniProt Q3L8U0, N47A)
T1 construct: crude and purified
T1 sequence (Q3L8U0 1-427 N47A): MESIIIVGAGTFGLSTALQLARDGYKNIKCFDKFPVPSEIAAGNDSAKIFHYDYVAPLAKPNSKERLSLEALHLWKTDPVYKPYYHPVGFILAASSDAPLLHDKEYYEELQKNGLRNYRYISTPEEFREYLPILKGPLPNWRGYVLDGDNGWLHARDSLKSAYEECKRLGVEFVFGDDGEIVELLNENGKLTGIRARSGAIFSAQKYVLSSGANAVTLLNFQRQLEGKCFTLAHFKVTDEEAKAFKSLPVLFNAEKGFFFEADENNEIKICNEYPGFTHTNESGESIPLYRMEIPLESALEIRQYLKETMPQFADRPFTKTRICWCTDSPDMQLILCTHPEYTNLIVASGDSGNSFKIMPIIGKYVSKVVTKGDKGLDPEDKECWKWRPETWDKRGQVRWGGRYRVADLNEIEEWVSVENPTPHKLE
Assay: Dehydrogenase activity kinetics (mPMS/DCIP), N1-1 FAOD N47A mutant
Assay type: biochemical
Settings: mPMS/DCIP over 4AA/TODB/POD
Source text: As used herein, “dehydrogenase activity” is an enzymatic activity (Vmax) of the fructosyl amino acid oxidase to catalyze oxidation of fructosyl amino acid to generate 2-keto-D-glucose and the corresponding amino acid while utilizing an electron mediator other than oxygen as an electron acceptor. The dehydrogenase activity may be assayed by measuring the amount of electrons transferred to the mediator using, for example, one of mPMS/DCIP (1-methoxy-5-methylphenazinium methylsulfate/2,6-dichloroindophenol), cPES (trifluoro-acetate-1-(3-carboxy-propoxy)-5-ethyl-phenanzinium, NA BM31—1144 (N,N-bis-(hydroxyethyl)-3-methoxynitrosoaniline hydrochloride, NA BM31—1008 (N,N-bis-hydroxyethyl-4-nitrosoaniline) and N—N-4-dimethyl-nitrosoaniline.
As used herein in the context of the relative or quantitative activity, the dehydrogenase activity is specifically defined to be the mole amount of the substrate (fructosyl amino acid) oxidized per unit time measured by the amount of electrons transferred to the mediator at 25° C. in 10 mM PPB (pH 7.0), 0.6 mM DCIP, and 6 mM methoxy PMS (mPMS).
Escherichia coli BL21 (DE3) cells harboring expression vectors of N1-1 FAOD (SEQ ID NO: 2) mutants were grown in 150 ml of LB medium containing 50 μg/ml kanamycin at 37° C. […] The formation of quinoneimine dye was measured spectrophotometrically at 546 nm. […]

## CC(C)[C@H](NCC1(O)OC[C@@H](O)[C@@H](O)[C@@H]1O)C(=O)O (some centres unmarked) [f-αVal, fructosyl valine]
Crude preparation
  B/A (Vmax dehydrogenase/Vmax oxidase): 7.5
Purified enzyme
  B/A (Vmax dehydrogenase/Vmax oxidase): 4.3

Reference: US8497083B2, “Fructosyl amino acid oxidase” (priority 2009, dated 2013)
